Test results taken from patent publication US10787450B2 (BRISTOL-MYERS SQUIBB COMPANY, priority 2016, dated 2020).
Read-outs that look alike come from different tables or passages of the source.

How the values were obtained:
ROCK2 = ROCK2 (Homo sapiens (Human), UniProt O75116); experiment: ROCK2 kinase inhibition assay (FITC peptide substrate, LABCHIP 3000 Reader); assay type: biochemical; conditions: 5 μM ATP, 1.5 μM peptide substrate
Procedure, shortened: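 IC50 derived by curve fitting of dose-response inhibition, read as separation of phosphorylated from unphosphorylated FITC peptide (1.5 μM) after EDTA stop. Buffer: HEPES pH 7.5, MgCl2, Brij-35, DTT; ATP 5 μM; final DMSO <2%; reaction initiated by Rho kinase addition.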

neointimal formation = conditions: rats; cited from earlier work
[1] = tested on: spontaneously hypertensive rat, renal hypertensive rat and deoxycortisone acetate salt hypertensive rat models; conditions: cited from earlier work
[2] = tested on: congestive heart failure in Dahl salt-sensitive rats; conditions: rat, in vivo; cited from earlier work
[3] = tested on: IL-1 beta-induced coronary stenosis; conditions: long term treatment; cited from earlier work
rat stroke model = conditions: in vivo; cited from earlier work

ROCK2, sequence (O75116 whole entry, species assumed): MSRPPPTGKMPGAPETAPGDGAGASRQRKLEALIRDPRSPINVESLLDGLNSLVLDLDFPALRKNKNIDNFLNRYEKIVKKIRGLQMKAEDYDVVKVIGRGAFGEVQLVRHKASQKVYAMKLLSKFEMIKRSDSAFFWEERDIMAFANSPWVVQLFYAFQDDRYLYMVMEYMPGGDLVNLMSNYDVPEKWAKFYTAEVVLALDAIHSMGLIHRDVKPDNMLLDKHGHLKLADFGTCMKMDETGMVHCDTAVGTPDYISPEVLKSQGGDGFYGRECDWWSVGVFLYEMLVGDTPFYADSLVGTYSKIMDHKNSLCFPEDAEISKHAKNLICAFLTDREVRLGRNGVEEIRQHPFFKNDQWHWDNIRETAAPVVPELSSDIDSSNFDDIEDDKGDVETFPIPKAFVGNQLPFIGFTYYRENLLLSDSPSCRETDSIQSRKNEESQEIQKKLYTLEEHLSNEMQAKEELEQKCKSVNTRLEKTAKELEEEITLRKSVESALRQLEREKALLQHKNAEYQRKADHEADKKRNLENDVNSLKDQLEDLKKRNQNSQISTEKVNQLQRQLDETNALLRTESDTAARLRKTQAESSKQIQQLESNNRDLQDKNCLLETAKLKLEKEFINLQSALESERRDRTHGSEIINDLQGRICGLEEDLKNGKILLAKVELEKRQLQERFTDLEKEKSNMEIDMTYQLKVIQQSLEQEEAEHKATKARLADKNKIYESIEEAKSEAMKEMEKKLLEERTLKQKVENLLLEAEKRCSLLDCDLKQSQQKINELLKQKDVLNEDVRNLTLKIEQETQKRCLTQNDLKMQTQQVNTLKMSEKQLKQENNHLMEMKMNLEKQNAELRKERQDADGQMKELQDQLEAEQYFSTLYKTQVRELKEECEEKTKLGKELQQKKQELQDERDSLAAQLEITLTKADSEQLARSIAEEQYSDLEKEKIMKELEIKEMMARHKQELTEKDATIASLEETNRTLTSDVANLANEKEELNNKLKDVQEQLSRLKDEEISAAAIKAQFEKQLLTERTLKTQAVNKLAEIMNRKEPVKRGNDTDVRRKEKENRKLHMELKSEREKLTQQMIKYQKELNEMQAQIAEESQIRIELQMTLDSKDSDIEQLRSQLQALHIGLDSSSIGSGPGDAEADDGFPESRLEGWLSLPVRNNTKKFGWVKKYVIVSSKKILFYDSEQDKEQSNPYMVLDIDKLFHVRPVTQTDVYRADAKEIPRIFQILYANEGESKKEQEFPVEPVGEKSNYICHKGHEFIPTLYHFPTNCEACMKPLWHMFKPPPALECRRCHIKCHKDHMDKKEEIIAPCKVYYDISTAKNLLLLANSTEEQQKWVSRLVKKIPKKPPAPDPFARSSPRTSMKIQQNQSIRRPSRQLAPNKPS

Compound | IC50 (ROCK2) | further results
COc1cccc(NC2C(=O)N(c3ncc(-c4cn[nH]c4)c(OC)n3)CC23CCN(C(=O)c2cnn4ccccc24)CC3)c1 (stereo not drawn) [Example 243, 2-(4-methoxy-5-(1H-pyrazol-4-yl)pyrimidin-2-yl)-4-((3-methoxyphenyl)amino)-8-(pyrazolo[1,5-a]pyridine-3-carbonyl)-2,8-diazaspiro[4.5]decan-3-one] | 250 to 3000 nM | –
COc1cccc(NC2C(=O)N(c3ccc(-c4cn[nH]c4)cc3)CC23CN(C(C)=O)C3)c1 (stereo not drawn) [Example 244, 6-(4-(1H-pyrazol-4-yl)phenyl)-2-acetyl-8-((3-methoxy-phenyl)amino)-2,6-diazaspiro [3.4]octan-7-one] | 250 to 3000 nM | –
COc1cccc(NC2C(=O)N(c3ccc(-c4cn[nH]c4)cc3)CC23CN(C(=O)C2COC2)C3)c1 (stereo not drawn) [Example 245, 6-(4-(1H-pyrazol-4-yl)phenyl)-8-((3-methoxy-phenyl)amino)-2-(oxetane-3-carbonyl)-2,6-diazaspiro [3.4]octan-7-one] | 250 to 3000 nM | –
COc1cccc(NC2C(=O)N(c3ccc(-c4cn[nH]c4)cc3)CC23CN(C(=O)C(C)(C)O)C3)c1 (stereo not drawn) [Example 246, 6-(4-(1H-pyrazol-4-yl)phenyl)-2-(2-hydroxy-2-methylpro-panoyl)-8-((3-methoxy-phenyl)amino)-2,6-diazaspiro [3.4]octan-7-one] | 250 to 3000 nM | –
COc1cccc(NC2C(=O)N(c3ccc(-c4cn[nH]c4)cc3)CC23CN(CC(F)F)C3)c1 (stereo not drawn) [Example 247, 6-(4-(1H-pyrazol-4-yl)phenyl)-2-(2,2-difluoroethyl)-8-((3-methoxy-phenyl)amino)-2,6-diazaspiro [3.4]octan-7-one] | 250 to 3000 nM | –
COC(=O)N1CC2(C1)CN(c1ccc(-c3cn[nH]c3)cc1)C(=O)C2Nc1cccc(OC)c1 (stereo not drawn) [Example 248, methyl 6-(4-(1H-pyrazol-4-yl)phenyl)-8-((3-methoxy-phenyl)amino)-7-oxo-2,6-diazaspiro [3.4]octane-2-carboxylate] | 250 to 3000 nM | –
COc1cccc(NC2C(=O)N(c3ccc(-c4cn[nH]c4)cc3)CC23CCN(C(C)=O)CC3)c1 (stereo not drawn) [Example 249, -(4-(1H-pyrazol-4-yl)phenyl)-8-acetyl-4-((3-methoxy-phenyl)amino)-2,8-diazaspiro [4.5]decan-3-one] | 250 to 3000 nM | –
COc1cccc(NC2C(=O)N(c3ccc(-c4cn[nH]c4)cc3)CC23CCN(C(=O)CO)CC3)c1 (stereo not drawn) [Example 250, 2-(4-(1H-pyrazol-4-yl)phenyl)-8-(2-hydroxy-acetyl)-4-((3-methoxy-phenyl)amino)-2,8-diazaspiro [4.5]decan-3-one] | 250 to 3000 nM | –
COC(=O)N1CCC2(CC1)CN(c1ccc(-c3cn[nH]c3)cc1)C(=O)C2Nc1cccc(OC)c1 (stereo not drawn) [Example 251, methyl 2-(4-(1H-pyrazol-4-yl)phenyl)-4-((3-methoxy-phenyl)amino)-3-oxo-2,8-diazaspiro [4.5]decane-8-carboxylate] | 250 to 3000 nM | –
COc1cccc(NC2C(=O)N(c3ccc(-c4cn[nH]c4)cc3)CC23CCN(CCO)CC3)c1 (stereo not drawn) [Example 252, 2-(4-(1H-pyrazol-4-yl)phenyl)-8-(2-hydroxy-ethyl)-4-((3-methoxy-phenyl)amino)-2,8-diazaspiro [4.5]decan-3-one] | 250 to 3000 nM | –
COc1cccc(NC2C(=O)N(c3ccc(-c4cn[nH]c4)cc3)CC23CCN(CC(C)(C)O)CC3)c1 (stereo not drawn) [Example 253, 2-(4-(1H-pyrazol-4-yl)phenyl)-8-(2-hydroxy-2-methylpropyl)-4-((3-methoxy-phenyl)amino)-2,8-diazaspiro [4.5]decan-3-one] | 250 to 3000 nM | –
COc1cccc(NC2C(=O)N(c3ccc(-c4cn[nH]c4)cn3)CC23CCN(C(=O)CC(C)c2ccccc2)CC3)c1 (stereo not drawn) [Example 254, 2-(5-(1H-pyrazol-4-yl)pyridin-2-yl)-4-((3-methoxy-phenyl)amino)-8-(3-phenyl-butanoyl)-2,8-diazaspiro [4.5]decan-3-one] | 250 to 3000 nM | –
COc1ccc(CCC(=O)N2CCC3(CC2)CN(c2ccc(-c4cn[nH]c4)cn2)C(=O)C3Nc2cccc(OC)c2)cc1 (stereo not drawn) [Example 255, -(5-(1H-pyrazol-4-yl)pyridin-2-yl)-4-((3-methoxy-phenyl)amino)-8-(3-(4-methoxy-phenyl)propanoyl)-2,8-diazaspiro [4.5]decan-3-one] | 250 to 3000 nM | –
COc1cccc(NC2C(=O)N(c3ccc(-c4cn[nH]c4)cn3)CC23CCN(C(=O)CCn2cc(C)c4ccccc42)CC3)c1 (stereo not drawn) [Example 256, 2-(5-(1H-pyrazol-4-yl)pyridin-2-yl)-4-((3-methoxy-phenyl)amino)-8-(3-(3-methyl-1H-indol-1-yl)propanoyl)-2,8-diazaspiro [4.5]decan-3-one] | 30 to 250 nM | –
COc1cccc(NC2C(=O)N(c3ccc(-c4cn[nH]c4)cn3)CC23CCN(C(=O)Cc2csc(C)n2)CC3)c1 (stereo not drawn) [Example 257, 2-(5-(1H-pyrazol-4-yl)pyridin-2-yl)-4-((3-methoxy-phenyl)amino)-8-(2-(2-methyl-thiazol-4-yl)acetyl)-2,8-diazaspiro [4.5]decan-3-one] | 250 to 3000 nM | –
COc1cccc(NC2C(=O)N(c3ccc(-c4cn[nH]c4)cn3)CC23CCN(C(=O)CCc2nnc(-c4ccccc4)o2)CC3)c1 (stereo not drawn) [Example 258, 2-(5-(1H-pyrazol-4-yl)pyridin-2-yl)-4-((3-methoxy-phenyl)amino)-8-(3-(5-phenyl-1,3,4-oxadiazol-2-yl)pro-panoyl)-2,8-diazaspiro [4.5]decan-3-one] | 30 to 250 nM | –
COc1cccc(NC2C(=O)N(c3ccc(-c4cn[nH]c4)cn3)CC23CCN(C(=O)CCN2CCCC2=O)CC3)c1 (stereo not drawn) [Example 259, 2-(5-(1H-pyrazol-4-yl)pyridin-2-yl)-4-((3-methoxy-phenyl)amino)-8-(3-(2-oxo-pyrrolidin-1-yl)pro-panoyl)-2,8-diazaspiro [4.5]decan-3-one] | 250 to 3000 nM | –
C[C@@H](N)[C@H]1CC[C@H](C(=O)Nc2ccncc2)CC1 [Example Y-27632, Y-27632] | – | neointimal formation (neointimal formation): inhibited neointimal formation; effect on blood pressure ([1]; control rats): only a minor effect on blood pressure; effect on blood pressure ([1]; three rat models of hypertension): significantly decrease blood pressure; ventricular hypertrophy, fibrosis and function [2]: improve ventricular hypertrophy, fibrosis and function
O=S(=O)(c1cccc2cnccc12)N1CCCNCC1 [fasudil] | – | coronary constrictive remodeling [3]: promote a regression of coronary constrictive remodeling; coronary stenosis [3]: progressively reduce coronary stenosis; infarct size and neurologic deficit (rat stroke model): reduce both the infarct size and neurologic deficit
